Blank lines part the entries; values can stand above or below the compound they belong to.
Key:
[1] = target: T1, membrane-bound A-protein (Am), purified from bovine rod outer segments, N-terminus SEQ ID NO:1 (Bos taurus, UniProt P21457); experiment: ATPase assay (hydrolysis of [γ-32P]ATP); type: biochemical; settings: double reciprocal plots and regression analysis
T1 sequence (P21457 2-202): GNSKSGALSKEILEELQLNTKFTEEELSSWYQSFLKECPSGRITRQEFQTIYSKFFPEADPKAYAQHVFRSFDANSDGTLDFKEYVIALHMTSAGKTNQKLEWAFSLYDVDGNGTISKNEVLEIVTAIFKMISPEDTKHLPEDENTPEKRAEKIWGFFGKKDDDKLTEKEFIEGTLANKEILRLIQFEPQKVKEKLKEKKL
Protocol: (§1) GTP (2.8 Ci/mmol) or 88.8 to 177.5 nM [γ-^32P] […] The stripped ROS membranes (containing rhodopsin as the receptor) were prepared by washing ROS membranes 3 times in buffer C(100 mM NaCl, 20 mM Tris-HCl, pH 7.0, 1 mM MgCl2) and 3 times in water containing 0.01% polyoxyethylene 23 lauryl ether (Brij 35™ nonionic detergent, Sigma Chemical Co.). The stripped membranes were resuspended in buffer D (10 mM Tris-HCl, pH 7.0, 0.1 mM EGTA) prior to use.
(§2) Samples were incubated at room temperature for 5 minutes and quenched with 200 µl ice-cold quench buffer ([…] KH2PO4, 6% Norite A, 10% TCA). The samples were kept on ice for 30 minutes and spun down for 5 minutes in a microcentrifuge. 50 µl aliquots of each supernatant were placed in a vial with 5 ml scintillation fluid and assayed for radioactivity. The hydrolysis of [γ-^32P]-GTP was measured in the presence and absence of photolyzed rhodopsin.
Km and Vmax were determined by construction of double reciprocal plots and regression analysis.

[2] = target: T1, membrane-bound A-protein (Am), purified from bovine rod outer segments, N-terminus SEQ ID NO:1; experiment: GTPase assay (hydrolysis of [γ-32P]GTP); type: biochemical
Protocol: as §1, §2
The apparent Michaelis constant was determined for As and Am by measuring the rate of GTP hydrolysis over a thousand-fold range of substrate concentrations. Km and Vmax were determined by construction of double reciprocal plots and regression analysis.

transducin (Tα) = transducin (Tα) (Bos taurus, UniProt P04695); experiment: GTPase assay, comparison protein; type: biochemical; settings: mol/mol basis, submaximal velocity, in the presence of photoactivated rhodopsin
transducin (Tα), sequence (P04695 2-350 limits assumed): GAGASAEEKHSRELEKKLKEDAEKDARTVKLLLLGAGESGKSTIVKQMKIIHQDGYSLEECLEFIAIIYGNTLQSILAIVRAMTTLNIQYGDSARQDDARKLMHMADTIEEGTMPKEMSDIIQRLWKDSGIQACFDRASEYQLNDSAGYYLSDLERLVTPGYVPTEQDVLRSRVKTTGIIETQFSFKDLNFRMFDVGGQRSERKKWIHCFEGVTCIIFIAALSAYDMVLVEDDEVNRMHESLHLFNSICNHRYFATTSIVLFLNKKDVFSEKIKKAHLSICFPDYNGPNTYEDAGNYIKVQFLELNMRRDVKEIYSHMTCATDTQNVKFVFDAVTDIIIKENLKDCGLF
Protocol: as §1, §2
The GTPase rates for Am and transducin are additive when the two purified proteins are present in approximately equimolar concentrations.

[3] = target: T1, membrane-bound A-protein (Am), purified from bovine rod outer segments, N-terminus SEQ ID NO:1; experiment: GTP analog binding assay (nitrocellulose filtration); settings: 30 minutes, no cofactors
Protocol: (§3) Assays of the binding of the GTP-analogs Gpp(NH)p and GTPγS (New England Nuclear) by both Am and AS were performed according to the methods of Northup et al. (J. Biol. Chem., 257:11416-11423 (1982)). Binding was carried out in a total volume of 100 µl of solution containing 5 to 10 µg purified A-protein, 15.3 µM 3H-Gpp(NH)p (10 µCi) or 1.32 µM GTPγS^35 (1 µCi) and buffer (100 mM NaCl, 0.1 mM EDTA, 20 mM Tris-HCl, pH 7.0). The samples were vortexed and incubated at 25°C for 30 minutes, quenched with 200 µl ice-cold buffer (0.5 M NaCl, 0.1 M Tris-HCl, 0.1% Tween 80™), and kept on ice for 30 minutes. The samples were placed onto nitrocellulose filters that had been previously washed with 2 ml of the same buffer. The filters were rinsed 5 times with 2 ml ice-cold buffer and assayed for radioactivity.

[4] = target: T2, soluble A-protein (As), purified from bovine rod outer segments, N-terminus SEQ ID NO:2 (Bos taurus, UniProt P21457); experiment: as above; settings: 30 minutes, no cofactors
T2 sequence (P21457 2-202): T1 sequence (P21457 2-202)
Protocol: as §3

SMILES: Nc1ncnc2c1ncn2[C@@H]1O[C@H](COP(=O)(O)OP(=O)(O)OP(=O)(O)O)[C@@H](O)[C@H]1O [ATP, adenosine triphosphate]
Vmax:Am ATPase [1]: 2.90 (±0.16) pmol/mg A-protein min^-1

Vmax:Am GTPase ([2]; double reciprocal plots and regression analysis): 16.4 nmol/mgAmmin^-1 | rate of GTP hydrolysis by Am ([2]; mol/mol basis, submaximal velocity, in the presence of photoactivated rhodopsin): 0.458 GTP sec^-1/Am | rate of GTP hydrolysis by transducin (transducin (Tα)): 0.512 GTP sec^-1/Tα
SMILES: Nc1nc2c(ncn2[C@@H]2O[C@H](COP(=O)(O)OP(=O)(O)OP(=O)(O)O)[C@@H](O)[C@H]2O)c(=O)[nH]1 [GTP, guanosine triphosphate]

SMILES: Nc1nc2c(ncn2[C@@H]2O[C@H](COP(=O)(O)OP(=O)(O)OP(O)(O)=S)[C@@H](O)[C@H]2O)c(=O)[nH]1 [GTPγS]
GTPγS bound by Am ([3]; 1.32 µM GTPγS35, 25°C): 0.93 mol GTP Analog/mol Protein | GTPγS bound by As ([4]; 1.32 µM GTPγS35, 25°C): 0.47 mol GTP Analog/mol Protein

Gpp(NH)p bound by Am ([3]; 15.3 µM 3H-Gpp(NH)p, 25°C): 0.57 ± 0.12 mol GTP Analog/mol Protein | Gpp(NH)p bound by As ([4]; 15.3 µM 3H-Gpp(NH)p, 25°C): 0.29 ± 0.08 mol GTP Analog/mol Protein
SMILES: Nc1nc2c(ncn2[C@@H]2O[C@H](COP(=O)(O)OP(=O)(O)NP(=O)(O)O)[C@@H](O)[C@H]2O)c(=O)[nH]1 [Gpp(NH)p]
